Measurements as given in US11491192B2, “Treatment and prevention of pathogenic bacterial overgrowth using butyrate-producing bacteria” (THE CLEVELAND CLINIC FOUNDATION, priority 2018, dated 2022).

Legend:
F. prausnitzii = experiment: Brucella broth dilution MIC of common antibiotics; assay type: cell-based, Faecalibacterium prausnitzii; conditions: unit assumed
Experimental: This strain was chosen because it was isolated from human feces, and based on its ability to hydrolyze PS, yield butyrate, and utilize lactate. Belenguer et al., Applied Environmental Microbiology, 72:3593-3599 (2006) Bacteria was grown in conditions and medium as recommended by ATCC, briefly at 37° C. in anaerobic gas biological mix of 80% nitrogen, 10% carbon dioxide, 10% hydrogen, ATCC pre-reduced chopped meat broth (ATCC 1703). Overnight culture of FP was lyophilized on […] system and reconstituted in pre-reduced sterile phosphate buffered saline (PBS) just prior to treatment. Brucella broth dilution MIC of common antibiotics for FP and CD strains were determined using standard methods for susceptibility testing of anaerobic bacteria (Table 1).

C. difficile = experiment: Brucella broth dilution MIC of common antibiotics; assay type: cell-based, Clostridium difficile; conditions: unit assumed
[1] = test system: sodium-coupled butyrate transporter, butyrate receptor, tight junction proteins and NHE3; conditions: supplementation during broad spectrum antibiotic treatment in mice; Cresci et al. 2013; cited from earlier work
[2] = Brucella broth dilution, FP strain used in this study (ATCC 27766)
[3] = Brucella broth dilution, CD strain used in this study (VA17)

Molecule | F. prausnitzii MIC (F. prausnitzii; [2]) | C. difficile MIC (C. difficile; [3]) | further results
CO[C@@]1(NC(=O)Cc2cccs2)C(=O)N2C(C(=O)O)=C(COC(N)=O)CS[C@@H]21 [Cefoxitin] | < 2 µg/mL | 250 µg/mL | –
CCC[C@@H]1C[C@@H](C(=O)N[C@@H]([C@H]2O[C@H](SC)[C@H](O)[C@@H](O)[C@H]2O)[C@H](C)Cl)N(C)C1 [Clindamycin] | – | 500 µg/mL | –
Cc1ncc([N+](=O)[O-])n1CCO [Metronidazole] | < 2 µg/mL | < 2 µg/mL | –
CN[C@H](CC(C)C)C(=O)N[C@H]1C(=O)N[C@@H](CC(N)=O)C(=O)N[C@H]2C(=O)N[C@H]3C(=O)N[C@H](C(=O)N[C@H](C(=O)O)c4cc(O)cc(O)c4-c4cc3ccc4O)[C@H](O)c3ccc(c(Cl)c3)Oc3cc2cc(c3O[C@@H]2O[C@H](CO)[C@@H](O)[C@H](O)[C@H]2O[C@H]2C[C@](C)(N)[C@H](O)[C@H](C)O2)Oc2ccc(cc2Cl)[C@H]1O [Vancomycin] | – | – | F. prausnitzii MIC (F. prausnitzii): < 2 µg/mL; C. difficile MIC (C. difficile): < 2 µg/mL
CCCC(=O)OCC(COC(=O)CCC)OC(=O)CCC [tributyrin] | – | – | intestinal losses of sodium-coupled butyrate transporter, butyrate receptor, tight junction proteins and NHE3 [1]: protects against intestinal losses
Piperacillin/Tazaba | 8 µg/mL | 15.6 µg/mL | –
